# Assay results published in a melting point compilation (Tetko et al.; mined from patent text by program, amines drawn as free bases though some values may be those of a salt).
row,melting point,SMILES
1,124 to 126 °C,CCOC(=O)COc1cccc2c1CCc1sc(SC(c3ccccc3)c3ccccc3)nc1-2
2,117 to 118 °C,O=C(O)Cc1ccc2c(c1)CCC(c1ccccc1F)N2 (stereo not given)
3,206 to 212 °C,COc1cc2c(cc1OC)[C@@H](c1ccc([N+](=O)[O-])cc1)NN(C1=NCCS1)[C@@H](C)C2
4,69 to 70 °C,CNc1cncc(C(F)(F)F)c1
5,215 to 220 °C,CN(C)c1ccc(C(=CC(C=C(c2ccc(N(C)C)cc2)c2ccc(N(C)C)cc2)c2ccc(N(C)C)cc2)c2ccc(N(C)C)cc2)cc1
6,110 to 112 °C,COc1ccc(-c2nc(C#N)oc2-c2ccc(OC)cc2)cc1
7,238 to 240 °C,O=C(O)Cc1cccc2c1N=C(c1ccccc1)CC2=O
8,93 to 95 °C,C/C(=C\c1ccc(C(F)(F)F)cc1)[C@H]1OC[C@H](SCc2ccc(Cl)cc2)CO1
9,172 to 174 °C,COC(=O)c1c(Cc2ccc(S(=O)(=O)CCO)cc2)c(=O)c2ccc(Cl)cc2n1-c1ccccc1
10,157 to 158 °C,CC(C)n1nc(-c2sc(NCc3ccccc3)nc2-c2ccccc2)ccc1=O
11,71 °C,C#Cc1ccc(C2CCC(C3CCC(CCC)CC3)CC2)cc1 (stereo not given)
12,73 to 74 °C,NCCCOc1ccc(OCCCN)cc1
13,61 to 63 °C,CCCCCCCCCCCCC1=C(OC)C(=O)c2ccccc2C1=O
14,240 to 242 °C,CC(C)n1nc(-c2c(Nc3ccccc3)nc(N)nc2-c2ccccc2)ccc1=O
15,140 to 142 °C,CS(=O)(=O)Nc1ccc(OC2CCCC2)cc1
16,73 to 75 °C,CC(C)(C#N)C1(c2ccc(Cl)cc2)CCC1
17,121 to 123 °C,CCOC(=O)c1c(-c2ccccc2C)c2cc(C)c(Cl)cc2n(C)c1=O
18,88 °C,Cc1ncn(C)c1-c1nc(C2CC2)no1
19,186 to 187 °C,Cc1ncsc1CCOc1ccc(NC(=O)c2cc(F)cc(N3CCOCC3)c2)c2ccccc12
20,80 to 83 °C,CC(=O)OCCN1CN(C)C(=S)N(c2ccc(C)cc2C)C1
21,85 to 87 °C,CCOC(=O)Cn1ccn2nc(-c3ccccc3)cc12
22,133 to 134 °C,CCC(COC)n1nnc2c(Nc3ccc(C(C)=O)cc3Br)nc(C)nc21 (stereo not given)
23,148 to 151 °C,CCC(=O)NCC1CC1c1cccc2nc(C(F)(F)F)cn12 (stereo not given)
24,112 to 114 °C,COC(=O)C1c2ccc(OCc3ccccc3)cc2CCN1CC(=O)N1CCC(c2ccccc2)CC1 (stereo not given)

row,melting point,SMILES
1,227 °C,Cc1c(C(=O)Nc2ccc(N3CCN(C4CCOCC4)CC3)c(C#N)c2)cnn1-c1ccccc1
2,187 to 188 °C,CC(C)(C)Cc1c(CC(C)(C)C(=O)O)n(Cc2ccc(Cl)cc2)c2ccc(OCc3ccc4sccc4n3)cc12
3,127 to 129 °C,Cc1nc2sccn2c(=O)c1Br
4,227 to 228 °C,COc1cc(C=C2NC(=O)N(C)C2=O)ccc1O
5,> 300 °C,Cc1cnc2c(=O)[nH]c3ccc(Cl)cc3n12
6,70 to 72 °C,CCc1noc(-c2ncn(-c3cccnc3)c2COC)n1
7,107 to 108 °C,O=Cc1ccc(Cl)c(OCCCC(=O)N(CCO)CCCCC2CCCC2)c1[N+](=O)[O-]
8,186 to 188 °C,O=C(O)c1ccc(S(=O)(=O)Oc2ccc(-c3ccc(-c4c(Cc5ccccc5)oc5ccccc45)cc3)cc2)cc1
9,198 to 200 °C,O=C(NC(=O)c1c(Cl)cccc1Cl)Nc1cc(Cl)c(OC(F)(F)C(F)Cl)cc1Cl (stereo not given)
10,180 °C,COc1cccc(OC)c1-c1ccc(C[C@H](NC(=S)c2c(Cl)cccc2Cl)C(=O)O)cc1
11,135 to 136 °C,Cc1cc(C)n(C(=O)CNS(=O)(=O)c2ccc(Cl)cc2)n1
12,224 to 226 °C,CCNC(=O)[C@H]1CN(c2ccc3c(c2)sc(=O)n3C)C(=O)O1
13,130 to 136 °C,NC(=O)c1n[nH]c(S(=O)(=O)c2ccc(Br)cc2)n1
14,143 to 145 °C,O=C(O)c1cc(OCc2ccccc2)cc(C(F)(F)F)c1
15,117 °C,O=C(COc1cc(-c2ccc(Cl)cc2)nc2ccccc12)N1CCSCC1
16,67 to 76 °C,COCCN(C)S(=O)(=O)c1ccccc1Nc1nc(Nc2cc3c(cc2OC)CCN(CC(=O)N(C)C)CC3)ncc1Cl
17,> 240 °C,Cn1cc(C2c3ccc(Cl)cc3C=Cc3sc(N)nc32)c(=O)[nH]c1=O (stereo not given)
18,224 °C,CC1CC2C3CCC4=CC(=O)CCC4(C)C3(F)C(O)CC2(C)C1C(=O)CC#N (stereo not given)
19,111 to 112 °C,C=CCNC(=O)C(C)=Cc1cc([N+](=O)[O-])ccc1Cl
20,132 °C,COc1cccc(C(=O)c2ccc(OC)c(C(=O)O)c2)c1
21,181 to 183 °C,CC1CN(c2cc3c(c(N)c2F)c(=O)c(C(=O)O)cn3C2CC2)CCN1 (stereo not given)
22,147 to 150 °C,CC1(C)CCC(C)(C)c2cc(-c3cc(-c4ccc(C(=O)O)cc4)ccc3OCCCCCCCCCO)ccc21
23,64 to 65 °C,CCOc1c(C2=C(C(C)(C)C)C(C)(C)CO2)sc2ccc(O[Si](C)(C)C(C)(C)C)cc12
24,115 to 120 °C,CC(=O)Oc1c(C)c(C)c2c(c1C)CCC(O)O2 (stereo not given)

row,melting point,SMILES
1,173 to 175 °C,CCOc1ccc(Nc2ccc(Nc3ccc(OCC)cc3)c3c2C(=O)c2c(Nc4ccc(OCC)cc4)ccc(Nc4ccc(OCC)cc4)c2C3=O)cc1
2,226 to 228 °C,COC(=O)C(=O)c1c[nH]c2ccccc12
3,87 to 88 °C,OCc1cnn(-c2c(Cl)cc(C(F)(F)F)cc2Cl)n1
4,176 to 179 °C,COc1ccc(CCC(C)=O)cc1S(N)(=O)=O
5,135 to 137 °C,CCCC(=O)c1cnc2c(C(O)CN3CCOCC3)cccc2c1Nc1ccccc1C (stereo not given)
6,183 to 187 °C,O=C1c2ccc(Cl)cc2C(=O)N1c1ccc([N+](=O)[O-])cc1CI
7,136 to 138 °C,COC(=O)c1ccc(NC2COC(=O)C2)cc1 (stereo not given)
8,178 to 180 °C,O=C(Nc1cscn1)Nc1cccc2c1C1CCCCN1C2=O (stereo not given)
9,64 to 65 °C,O=C1COC(=O)C(Cc2ccccc2)O1 (stereo not given)
10,75 to 76 °C,COc1cc(C)c(N)cc1C
11,212 to 214 °C,COc1cc(OC(=O)c2cccnc2)c2c(=O)c(OC)c(-c3ccc(OC(=O)c4cccnc4)c(OC)c3)oc2c1
12,146 °C,CCCCNC(=O)N(C)c1cccc(-c2ccc(C=C(OC)C(=O)O)cc2)c1
13,125 to 133 °C,CCC1(CC)C(=O)N(C(C)(C)C)CC(C)(C)N1OC(C(=O)O)c1ccccc1 (stereo not given)
14,164 to 166 °C,CC(C)(C)OC(=O)N1CCc2c(n(CCOc3ccc(F)cc3)c3ccc(Cl)c(Cl)c23)CC1
15,271 to 273 °C,Cc1ccc(C=CC(=O)NN2CC(=O)NC2=O)cc1Cl
16,130 °C,CCOc1ccc2cc(N3CC(COC)OC3=O)ccc2c1 (stereo not given)
17,97 to 99 °C,CCOC(=O)C(=CNc1ccc(F)cc1F)C(=O)c1c(F)c(F)c(F)c(F)c1F
18,217 to 218 °C,COC(=O)C1Cc2c([nH]c3ccccc23)C(c2ccccc2)N1 (stereo not given)
19,203 to 205 °C,CC(=O)OC1CSC(Oc2ccc(-c3cncc(Cl)c3)nc2)C(OC(C)=O)C1OC(C)=O (stereo not given)
20,167 to 168 °C,"O=C(CN1CCNC1=O)N1CCC(C2c3ncc(Br)cc3CCc3cc(Cl)cc(Br)c32)CC1 (single isomer, unassigned; (+))"
21,205 to 207 °C,CCC(CC)c1ccc(Cl)c2nc3n(c12)CCN3C(=O)c1ccc(Cl)nc1
22,117 to 118 °C,COc1ccc(C2CCN(C(=O)C(N)=O)CC2)cc1CC1CCCC1
23,138 to 142 °C,CCCCCCCC(=O)C(CC(=O)OCC)C(=O)OCC (stereo not given)
24,< 50 °C,c1cc2ccsc2cn1

row,melting point,SMILES
1,70 to 71 °C,Cc1ccc2nc(-c3ccccc3Br)ncc2c1
2,116 to 117 °C,COC(=O)c1sc(C)c(O)c1O
3,113 to 115 °C,CC(C)(C)C(=O)c1c[nH]c2ncc(N3CCc4ccccc4C3=O)nc12
4,94 to 97 °C,CCC(=O)c1cc([C@]2(c3cccc(-c4cccnc4F)c3)N=C(N)N(C)C2=O)cn1CC
5,83 to 84 °C,Oc1ccc(C#Cc2ccccc2)cc1
6,75 to 77 °C,CC(=Cc1ccccc1)c1cc2c(cc1C)C(C)(C)CCC2(C)C
7,75 to 81 °C,CC(=O)Oc1ccc(C(F)(F)C(F)(F)C(F)(F)I)cc1
8,144 to 146 °C,CCn1ncc(C(=O)c2ccc(Cl)cc2Cl)c1O
9,122 to 125 °C,CN1C(=O)NC(N)C1=O (stereo not given)
10,126 to 128 °C,COc1cc2c(cc1OCc1ccccc1)[C@H](CO)OC2=O
11,163 to 165 °C,CC(C)c1nc2c(N)nc3ccccc3c2s1
12,154 to 155 °C,Cc1ccc(-c2ccc3c(c2)C=C(C(=O)Nc2ccc(CNCC4CCCCC4)cc2)CCO3)cc1
13,256 to 257 °C,COc1ccc2cncc(CCl)c2c1
14,55 to 57 °C,CCOC(=O)c1cnc2ccc(F)cc2c1Cl
15,57 to 59 °C,CCOC(=O)CCCCCCCCCCSc1nc(-c2ccccc2)c(-c2ccccc2)[nH]1
16,92 to 93 °C,CCCCc1nc(C(C)(C)O)c(C(=O)OCC)n1Cc1ccc(-c2ccccc2C(=O)OC(C)(C)C)cc1
17,174 to 176 °C,Cc1ccccc1N1CCN(Cc2c[nH]c3ncccc23)CC1
18,135 to 136 °C,NC(CCCCNC(=O)OCc1ccccc1)C(=O)N(Cc1ccccc1)Cc1ccccc1 (stereo not given)
19,264 to 265 °C,Brc1ccc(C#CC#Cc2ccc(Br)cc2)cc1
20,148 °C,COc1ccc(-c2ccc3ccc(NC(=O)c4ccc(C(F)(F)F)cc4)nc3n2)cc1
21,120 °C,CCOc1ccccc1OCC(O)CNCCNc1cnn(C)c(=O)c1Cl (stereo not given)
22,136 to 137 °C,COC(=O)c1c(OCC#N)c2cc(OC)ccc2n1C

row,SMILES,melting point
1,COc1ccc(CBr)c(Cl)c1Cl,101 to 102 °C
2,COc1cccc(CC(=O)N[C@H]2N=C(c3ccccc3)c3ccccc3N(C)C2=O)c1,198 to 199 °C
3,c1ccc2c(c1)CC(CN1CCC(c3c[nH]c4ccccc34)CC1)C2,146 to 147 °C
4,Cc1cc(-c2noc(N(C)C)n2)ccc1-c1ccc(C(=O)N2CCCc3cc4c(cc32)C2(CCN(C)CC2)CO4)cc1,118 to 120 °C
5,CN1CCC2(C)c3cc(OC(=O)OC(C)(C)C)cc(Br)c3N(C)C12 (stereo not given),146 to 148 °C
6,Fc1cc(F)c(N=C2NCCN2)c(F)c1,148 to 150 °C
